In data set [1] the target is T1, Acetylcholinesterase (Electrophorus electricus, UniProt O42275). Kind of data set: Inhibition of Electrophorus electricus AchE using acetylthiocholine iodide as substrate preincubated for 10 mins followed by substrate addition by spectrophotometric based Ellman's method. For orientation: DTNB colorimetry detects thiols as they appear.
The target in another data set is Cholinesterase (Equus caballus, UniProt P81908). Nature of the data set: Inhibition of equine serum BuChE using butyrylthiocholine as substrate preincubated for 10 mins followed by substrate addition by spectrophotometric based Ellman's method.
Cholinesterase, sequence (P81908 whole entry): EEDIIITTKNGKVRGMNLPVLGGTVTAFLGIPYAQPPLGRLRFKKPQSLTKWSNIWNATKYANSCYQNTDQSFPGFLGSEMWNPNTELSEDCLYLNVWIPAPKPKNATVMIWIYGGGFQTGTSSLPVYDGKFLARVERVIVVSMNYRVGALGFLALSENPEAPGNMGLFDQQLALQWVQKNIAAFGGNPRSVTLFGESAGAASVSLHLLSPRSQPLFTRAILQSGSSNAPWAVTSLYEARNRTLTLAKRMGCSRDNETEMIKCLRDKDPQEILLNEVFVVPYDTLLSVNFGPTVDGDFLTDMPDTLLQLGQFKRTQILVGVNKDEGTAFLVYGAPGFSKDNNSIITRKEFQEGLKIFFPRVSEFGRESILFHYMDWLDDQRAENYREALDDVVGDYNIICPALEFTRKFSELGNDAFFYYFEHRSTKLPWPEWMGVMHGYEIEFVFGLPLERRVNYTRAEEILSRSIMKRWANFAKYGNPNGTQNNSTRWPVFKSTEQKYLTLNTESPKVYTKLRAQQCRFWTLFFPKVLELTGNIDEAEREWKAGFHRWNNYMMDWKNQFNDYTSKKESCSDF
The nature of data set [2]: Selectivity ratio, ratio of IC50 for equine serum BuChE to IC50 for Electrophorus electricus AchE.
In data set [3] the test system is SH-SY5Y. Nature of the data set: Cytotoxicity against human SH-SY5Y cells assessed as reduction in cell viability at 20 to 80 uM incubated for 24 hrs by MTT assay. The following applies: dose 20-80 µM. In kind it is toxicity, cell-based.
Another data set concerns HT-29. Nature of the data set: Cytotoxicity against human HT-29 cells assessed as reduction in cell viability upto 30 uM incubated for 24 hrs by calcein/propidium iodide assay. In kind it is toxicity, cell-based. The conditions noted are these: ht-29, 24 h.
Data set [4] deals with SH-SY5Y. Kind of data set: Neuroprotective activity against t-BOOH induced neurotoxicity in human SH-SY5Y cells assessed as inhibition of ROS formation at 2.5 to 10 uM incubated for 30 mins by H2DCF-DA fluorescence assay. In kind it is functional, cell-based. The following applies: dose 2.5-10 µM.
Data set [5] concerns SH-SY5Y. Nature of the data set: Antioxidant activity against t-BOOH induced neurotoxicity in human SH-SY5Y cells at 10 uM. In kind it is functional.
Data set [6] relates to SH-SY5Y. Nature of the data set: Antioxidant activity against t-BOOH induced neurotoxicity in human SH-SY5Y cells. It is filed as functional, cell-based.
The test system of data set [7] is SH-SY5Y. Kind of data set: Neuroprotective activity against t-BOOH induced neurotoxicity in human SH-SY5Y cells assessed as increase in cell viability at 2.5 to 10 uM incubated for 4 hrs by MTT assay. It is filed as functional, cell-based. The conditions noted are these: dose 2.5-10 µM. Background: Formazan colour is commonly taken as a measure of viable cells.

In data set [8] the test system is SH-SY5Y. Kind of data set: Neuroprotective activity against amyloid beta (1 to 42) induced neurotoxicity in human SH-SY5Y cells assessed as increase in cell viability at 5 to 10 uM incubated for 4 hrs by MTT assay. In kind it is functional, cell-based. The conditions noted are these: dose 5-10 µM.
In data set [9] the target is Amyloid-beta precursor protein (Homo sapiens) (UniProt P05067). Kind of data set: Inhibition of amyloid beta (1 to 42) (unknown origin) self aggregation at 75 uM by Thioflavin T based fluorescence assay.
Amyloid-beta precursor protein (Homo sapiens), sequence (P05067 whole entry): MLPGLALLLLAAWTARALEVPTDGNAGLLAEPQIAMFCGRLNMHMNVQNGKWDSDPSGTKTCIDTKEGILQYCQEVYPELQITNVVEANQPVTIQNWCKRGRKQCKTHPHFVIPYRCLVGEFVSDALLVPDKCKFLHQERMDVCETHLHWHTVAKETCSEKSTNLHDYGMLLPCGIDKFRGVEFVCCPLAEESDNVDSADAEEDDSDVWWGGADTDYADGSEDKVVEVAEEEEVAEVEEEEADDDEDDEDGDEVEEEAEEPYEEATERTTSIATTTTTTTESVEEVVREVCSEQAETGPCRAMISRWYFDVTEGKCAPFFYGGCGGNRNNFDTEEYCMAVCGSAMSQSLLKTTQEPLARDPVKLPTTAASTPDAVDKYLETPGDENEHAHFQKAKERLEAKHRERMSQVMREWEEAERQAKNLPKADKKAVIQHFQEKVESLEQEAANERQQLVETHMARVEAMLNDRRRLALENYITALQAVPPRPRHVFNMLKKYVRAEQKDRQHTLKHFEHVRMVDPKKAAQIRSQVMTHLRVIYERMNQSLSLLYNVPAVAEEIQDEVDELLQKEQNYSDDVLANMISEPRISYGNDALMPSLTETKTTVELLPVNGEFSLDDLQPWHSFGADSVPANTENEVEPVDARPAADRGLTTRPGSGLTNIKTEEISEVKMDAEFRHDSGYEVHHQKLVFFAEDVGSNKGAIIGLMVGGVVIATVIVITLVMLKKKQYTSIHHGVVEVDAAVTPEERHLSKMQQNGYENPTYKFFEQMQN
Data set [10] deals with T1, Acetylcholinesterase. Nature of the data set: Inhibition of Electrophorus electricus AchE assessed as inhibition constant.
Data set [11] concerns SH-SY5Y. Kind of data set: Cytotoxicity against human SH-SY5Y cells assessed as reduction in cell viability upto 40 uM incubated for 24 hrs by MTT assay. In kind it is toxicity, cell-based.
The subject of data set [12] is SH-SY5Y. Kind of data set: Neuroprotective activity against t-BOOH induced neurotoxicity in human SH-SY5Y cells assessed as inhibition of ROS formation at 10 uM incubated for 30 mins by H2DCF-DA fluorescence assay. In kind it is functional, cell-based.
For data set [13], the target named is Acetylcholinesterase (Electrophorus electricus) (UniProt O42275). Kind of data set: Inhibition of Electrophorus electricus AchE using acetylthiocholine iodide as substrate at 30 uM preincubated for 10 mins followed by substrate addition by spectrophotometric based Ellman's method.
Acetylcholinesterase (Electrophorus electricus), sequence (O42275 24-633 limits assumed): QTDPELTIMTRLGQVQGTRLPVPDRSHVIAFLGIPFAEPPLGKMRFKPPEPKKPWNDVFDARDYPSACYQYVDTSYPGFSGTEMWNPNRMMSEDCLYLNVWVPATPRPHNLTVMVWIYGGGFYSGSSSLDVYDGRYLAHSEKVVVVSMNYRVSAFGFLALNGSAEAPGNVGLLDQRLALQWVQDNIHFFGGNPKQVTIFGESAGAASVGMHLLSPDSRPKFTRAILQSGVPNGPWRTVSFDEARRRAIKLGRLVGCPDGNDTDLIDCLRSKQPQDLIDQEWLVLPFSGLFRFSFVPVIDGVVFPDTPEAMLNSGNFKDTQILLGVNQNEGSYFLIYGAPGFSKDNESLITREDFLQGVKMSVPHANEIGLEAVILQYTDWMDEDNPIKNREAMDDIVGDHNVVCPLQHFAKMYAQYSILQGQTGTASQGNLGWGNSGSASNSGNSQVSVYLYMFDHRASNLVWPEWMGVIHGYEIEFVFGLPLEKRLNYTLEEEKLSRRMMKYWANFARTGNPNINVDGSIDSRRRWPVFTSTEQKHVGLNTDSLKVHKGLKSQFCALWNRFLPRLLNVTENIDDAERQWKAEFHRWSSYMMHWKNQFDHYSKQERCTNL

Calls of active or inactive are those of the source. The calls are words filed in the database; no cut-off is given here.

T1 sequence (O42275 whole entry): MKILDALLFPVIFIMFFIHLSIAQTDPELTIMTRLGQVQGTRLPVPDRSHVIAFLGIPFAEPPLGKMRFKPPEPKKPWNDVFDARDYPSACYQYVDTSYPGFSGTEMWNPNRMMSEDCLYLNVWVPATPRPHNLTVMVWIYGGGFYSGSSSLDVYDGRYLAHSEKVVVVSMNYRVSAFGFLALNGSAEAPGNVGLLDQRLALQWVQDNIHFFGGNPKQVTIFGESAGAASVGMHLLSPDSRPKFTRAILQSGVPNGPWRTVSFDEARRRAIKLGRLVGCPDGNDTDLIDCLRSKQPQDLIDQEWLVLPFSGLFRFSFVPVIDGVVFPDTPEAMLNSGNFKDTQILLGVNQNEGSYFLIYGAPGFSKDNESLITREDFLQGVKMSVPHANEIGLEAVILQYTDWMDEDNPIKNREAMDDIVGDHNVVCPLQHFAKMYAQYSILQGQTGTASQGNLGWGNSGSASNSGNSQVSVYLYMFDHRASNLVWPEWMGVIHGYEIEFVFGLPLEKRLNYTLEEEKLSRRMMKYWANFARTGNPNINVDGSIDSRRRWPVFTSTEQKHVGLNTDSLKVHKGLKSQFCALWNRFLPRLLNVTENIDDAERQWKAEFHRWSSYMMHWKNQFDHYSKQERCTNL

Turning to `O=C(N/N=C/c1ccccc1O)c1ccc(CN2CCC(CO)CC2)cc1`, the half-inhibitory concentration (IC50) on Acetylcholinesterase [1] was 5.9 µM; against Cholinesterase it was > 30 µM; in the data set with SH-SY5Y [6] it was 7.45 µM. Besides, the Ratio IC50 in data set [2] is > 5.1. Moreover, the values for the Activity result in the data set with SH-SY5Y [3] and with HT-29 were “Toxic” and “Non-Toxic”, respectively. Further, the result with SH-SY5Y [4], in the data set on SH-SY5Y [7] and with SH-SY5Y [8] was Active. The inhibition at 10 µM with SH-SY5Y [5] is 67.1%. In data set [9], this molecule came in with an inhibition of 30%. Further, at Acetylcholinesterase [10], the inhibition constant Ki was found to be 3.81 µM.
Regarding `O=C(N/N=C/c1ccc(Cl)cc1)c1ccc(CN2CCC(CO)CC2)cc1`, the IC50 on Acetylcholinesterase [1] is 5.6 µM; against Cholinesterase, > 30 µM. Further, the Ratio IC50 in data set [2] was > 5.4. Moreover, the Activity result with SH-SY5Y [11] and with HT-29 was “Non-Toxic” in each case. The result in the data set with SH-SY5Y [12] was Active. The inhibition at 10 µM in the data set with SH-SY5Y [5] came out at 24.5%. Moreover, the Ki at Acetylcholinesterase [10] stood at 3.55 µM.
Consider `O=C(N/N=C/c1ccccc1Cl)c1ccc(CN2CCC(CO)CC2)cc1`, for which the values for the half-inhibitory concentration (IC50) at Acetylcholinesterase [1] and against Cholinesterase were 9 µM and 12.9 µM, respectively. Further, in [2], the Ratio IC50 was determined as 1.4. Further, the Activity result with HT-29 is reported as “Non-Toxic”.
As for `O=C(N/N=C/c1ccc(F)cc1)c1ccc(CN2CCC(CO)CC2)cc1`, the half-maximal inhibitory concentration (IC50) was 26.4 µM at Acetylcholinesterase [1] and > 30 µM on Cholinesterase. In data set [2], the Ratio IC50 was > 1.1. Besides, the Activity result in the data set with HT-29 is recorded as “Non-Toxic”.
`COc1ccc(/C=N/NC(=O)c2ccc(CN3CCC(CO)CC3)cc2)cc1`: the IC50 against Acetylcholinesterase [1] is 15.3 µM; against Cholinesterase it was > 30 µM. Further, in data set [2], the Ratio IC50 is > 2. In addition, the Activity result in the data set on HT-29 was “Non-Toxic”.
Regarding `O=C(N/N=C/c1cccc(O)c1)c1ccc(CN2CCC(CO)CC2)cc1`, the IC50 on Acetylcholinesterase [1] was 13.9 µM; at Cholinesterase it was > 30 µM. Further, the Ratio IC50 in data set [2] was > 2.2. Further, the Activity result in the data set on HT-29 is “Non-Toxic”.
With `O=C(N/N=C/c1cccc(Cl)c1)c1ccc(CN2CCC(CO)CC2)cc1`, the IC50 at Acetylcholinesterase [1] amounted to 3.3 µM; against Cholinesterase it was 49.8 µM. Moreover, the Ratio IC50 in [2] was 15. Moreover, the Activity entry in the data set with SH-SY5Y [11] and in the data set on HT-29 was “Non-Toxic” throughout. Further, the outcome in the data set on SH-SY5Y [12] was Active. Besides, the inhibition at 10 µM in the data set with SH-SY5Y [5] stood at 46%. Besides, at Acetylcholinesterase [10], the Ki turned out to be 1.95 µM.
For `O=C(N/N=C/c1cccc(F)c1)c1ccc(CN2CCC(CO)CC2)cc1`, the results for the concentration for half-maximal inhibition (IC50) at Acetylcholinesterase [1] and at Cholinesterase were 8.2 µM and > 30 µM, respectively. Also, the Ratio IC50 in data set [2] was > 3.6. Further, the Activity result with HT-29 was “Non-Toxic”.
In the case of `O=C(N/N=C/c1ccc(N2CCCCC2)cc1)c1ccc(CN2CCC(CO)CC2)cc1`, the results for the half-maximal inhibitory concentration (IC50) against Acetylcholinesterase [1] and against Cholinesterase were 12 µM and > 30 µM, respectively. Further, the Ratio IC50 in data set [2] is > 2.5. In addition, the Activity entry was “Toxic” with SH-SY5Y [3] and “Non-Toxic” in the data set with HT-29. Further, the inhibitory constant (Ki) at Acetylcholinesterase [10] came out at 6.24 µM.
Regarding `COc1ccccc1/C=N/NC(=O)c1ccc(CN2CCC(CO)CC2)cc1`, the half-inhibitory concentration (IC50) worked out at 13.5 µM against Acetylcholinesterase [1] and 12.9 µM on Cholinesterase. The Ratio IC50 in data set [2] was determined as 1. Besides, the Activity entry in the data set on HT-29 is on record as “Non-Toxic”.
The molecule `O=C(N/N=C/c1ccc(O)cc1)c1ccc(CN2CCC(CO)CC2)cc1` came in with an inhibition in data set [13] of 45%. Further, the IC50 on Acetylcholinesterase [1] was 25.1 µM; at Cholinesterase, > 30 µM. Also, the Ratio IC50 in [2] is > 1.2. Besides, in the data set on HT-29, the Activity result was “Non-Toxic”.
Turning to `O=C(N/N=C/c1ccccc1F)c1ccc(CN2CCC(CO)CC2)cc1`, the IC50 against Acetylcholinesterase [1] was 12 µM; against Cholinesterase, > 30 µM. Besides, in data set [2], the Ratio IC50 was > 2.5. Besides, the Activity result in the data set with HT-29 is “Non-Toxic”.

As a reminder, the IC50 is the point on the concentration scale where inhibition reaches its midpoint. As a reminder, the inhibition is the share of the control response that was lost under treatment. A high value points to a strong effect. In general, Ki refers to the equilibrium dissociation constant of an inhibitor or competing ligand from its target.

Values taken from ChEMBL document CHEMBL5107999, “Synthesis and biological evaluation of 4-hydroxy-methylpiperidinyl-N-benzyl-acylarylhydrazone hybrids designed as novel multifunctional drug candidates for Alzheimer's disease” (Bioorg Med Chem, 2022).
